Measured values taken from ChEMBL document CHEMBL3046322, “Insect growth regulatory effects by diterpenes from Calceolaria talcana Grau & Ehrhart (Calceolariaceae: Scrophulariaceae) against Spodoptera frugiperda and Drosophila melanogaster” (2013).
Converted amounts (≈) assume the structure as drawn.

Assays:
Format in all cases: functional
[1] = tested on: Spodoptera frugiperda; assay: Growth inhibitory activity against first-instar larval stage of Spodoptera frugiperda (fall armyworm) fed with compound incorporated diet assessed as weight gained at 50 ug/ml after 7 days (reference value: 100%); set-up: scale not given: the % may be the effect or the level left
[2] = tested on: Spodoptera frugiperda; assay: Growth inhibitory activity against Spodoptera frugiperda (fall armyworm) larvae fed with compound containing diet assessed as relative growth index at 10 ug/ml (reference value: 1.0 no_unit)
[3] = tested on: Spodoptera frugiperda; assay: Growth inhibitory activity against Spodoptera frugiperda (fall armyworm) larvae fed with compound containing diet assessed as growth index at 50 ug/ml (reference value: 0.95 +/-0.02 no_unit)
[4] = tested on: Drosophila melanogaster; assay: Insecticidal activity against Drosophila melanogaster larvae fed with compound incorporated diet assessed as mortality after 72 hr by not choice test
[5] = tested on: Spodoptera frugiperda; assay: Growth inhibitory activity against Spodoptera frugiperda (fall armyworm) larvae fed with compound containing diet assessed as relative growth index at 50 ug/ml (reference value: 1.0 no_unit)
[6] = tested on: Spodoptera frugiperda; assay: Growth inhibitory activity against Spodoptera frugiperda (fall armyworm) larvae fed with compound containing diet assessed as relative growth index at 35 ug/ml (reference value: 1.0 no_unit)
[7] = tested on: Spodoptera frugiperda; assay: Growth inhibitory activity against Spodoptera frugiperda (fall armyworm) larvae fed with compound containing diet assessed as growth index at 20 ug/ml (reference value: 0.95 +/-0.02 no_unit)
[8] = tested on: Spodoptera frugiperda; assay: Growth inhibitory activity against Spodoptera frugiperda (fall armyworm) larvae fed with compound containing diet assessed as growth index at 10 ug/ml (reference value: 0.95 +/-0.02 no_unit)
[9] = tested on: Spodoptera frugiperda; assay: Growth inhibitory activity against Spodoptera frugiperda (fall armyworm) larvae fed with compound containing diet assessed as reduction in survival pupation at >35 ug/ml
[10] = tested on: Drosophila melanogaster; assay: Insecticidal activity against Drosophila melanogaster larvae fed with compound incorporated diet assessed as mortality at 100 ug/ml after 72 hr by not choice test (reference value: 0%)
[11] = tested on: Spodoptera frugiperda; assay: Acute toxicity against last larval stage of Spodoptera frugiperda (fall armyworm) assessed as survival at 70 ug/ml applied topically onto abdomen measured after 24 hr (reference value: 98.8 +/-3.5%)
[12] = tested on: Spodoptera frugiperda; assay: Acute toxicity against last larval stage of Spodoptera frugiperda (fall armyworm) assessed as survival at 50 ug/ml applied topically onto abdomen measured after 24 hr (reference value: 98.8 +/-3.5%)
[13] = tested on: Spodoptera frugiperda; assay: Acute toxicity against last larval stage of Spodoptera frugiperda (fall armyworm) assessed as survival at 35 ug/ml applied topically onto abdomen measured after 24 hr (reference value: 98.8 +/-3.5%)
[14] = tested on: Spodoptera frugiperda; assay: Acute toxicity against last larval stage of Spodoptera frugiperda (fall armyworm) assessed as survival at 20 ug/ml applied topically onto abdomen measured after 24 hr (reference value: 98.8 +/-3.5%)
[15] = tested on: Spodoptera frugiperda; assay: Acute toxicity against last larval stage of Spodoptera frugiperda (fall armyworm) assessed as survival at 10 ug/ml applied topically onto abdomen measured after 24 hr (reference value: 98.8 +/-3.5%)
[16] = tested on: Spodoptera frugiperda; assay: Insecticidal activity against first-instar larval stage of Spodoptera frugiperda (fall armyworm) fed with compound incorporated diet assessed as mortality at 50 ug/ml after 21 days (reference value: 5.6%); conditions: 504 h
[17] = tested on: Spodoptera frugiperda; assay: Growth inhibitory activity against first-instar larval stage of Spodoptera frugiperda (fall armyworm) fed with compound incorporated diet assessed as weight gained at 50 ug/ml after 21 days (reference value: 100%)
[18] = tested on: Spodoptera frugiperda; assay: Growth inhibitory activity against first-instar larval stage of Spodoptera frugiperda (fall armyworm) fed with compound incorporated diet assessed as weight gained at 20 ug/ml after 21 days (reference value: 100%)
[19] = tested on: Spodoptera frugiperda; assay: Growth inhibitory activity against first-instar larval stage of Spodoptera frugiperda (fall armyworm) fed with compound incorporated diet assessed as weight gained at 5 ug/ml after 21 days (reference value: 100%)
[20] = tested on: Spodoptera frugiperda; assay: Insecticidal activity against first-instar larval stage of Spodoptera frugiperda (fall armyworm) fed with compound incorporated diet assessed as mortality at 5 ug/ml after 7 days (reference value: 5.6%); conditions: 168 h
[21] = tested on: Spodoptera frugiperda; assay: Growth inhibitory activity against first-instar larval stage of Spodoptera frugiperda (fall armyworm) fed with compound incorporated diet assessed as length gained at 50 ug/ml after 21 days (reference value: 100%)
[22] = tested on: Spodoptera frugiperda; assay: Growth inhibitory activity against first-instar larval stage of Spodoptera frugiperda (fall armyworm) fed with compound incorporated diet assessed as length gained at 35 ug/ml after 7 days (reference value: 100%)
[23] = tested on: Spodoptera frugiperda; assay: Growth inhibitory activity against first-instar larval stage of Spodoptera frugiperda (fall armyworm) fed with compound incorporated diet assessed as length gained at 20 ug/ml after 7 days (reference value: 100%)
[24] = tested on: Spodoptera frugiperda; assay: Growth inhibitory activity against first-instar larval stage of Spodoptera frugiperda (fall armyworm) fed with compound incorporated diet assessed as length gained at 10 ug/ml after 7 days (reference value: 100%)
[25] = tested on: Spodoptera frugiperda; assay: Growth inhibitory activity against Spodoptera frugiperda (fall armyworm) larvae fed with compound containing diet assessed as delay in time to pupation at 20 ug/ml
[26] = tested on: Spodoptera frugiperda; assay: Growth inhibitory activity against Spodoptera frugiperda (fall armyworm) larvae fed with compound containing diet assessed as delay in time to pupation at 5 ug/ml
[27] = tested on: Drosophila melanogaster; assay: Insecticidal activity against Drosophila melanogaster larvae fed with compound incorporated diet assessed as mortality at 35 ug/ml after 72 hr by not choice test (reference value: 0%)
[28] = tested on: Drosophila melanogaster; assay: Insecticidal activity against Drosophila melanogaster larvae fed with compound incorporated diet assessed as mortality at 5 ug/ml after 72 hr by not choice test (reference value: 0%)

Compound	Activity [1]	Growth_index [2]	LC50 [4]	Growth_index [6]	Growth_index [7]	Growth_index [8]	mortality at 100 µg/mL [10]	Activity [13]	Activity [14]	Activity [15]	mortality at 50 µg/mL [16]	Weight gain relative to control [17]	Weight gain relative to control [18]	Larval weight gain relative to control [19]	mortality at 5 µg/mL [20]	Length gained (% of control) [21]	Length gained relative to control [22]	Length gained relative to control [23]	Larval length gained (% of control) [24]	other results
CC(C)c1ccc2c(c1)CC[C@H]1[C@](C)(CO)CCC[C@]21C [POMIFERIN A]	41.3%	0.98	16.1 µg/mL (≈ 56.2 µM)	0.75	0.91	0.93	82.9%	6.9%	51%	69.1%	44%	33.6%	50.6%	93.5%	33.3%	37.4%	42.5%	64.2%	79%	Growth_index [3]: 0.54; Growth_index [5]: 0.71; inhibition (INH) [9]: 0%; Activity [11]: 0%; Activity [12]: 3.9%
C[C@H]1[C@H](C)CC[C@]2(C(=O)O)CC[C@]3(C)C(=CC[C@@H]4[C@@]5(C)CC[C@H](O)C(C)(C)[C@@H]5CC[C@]43C)[C@H]12 [URSOLIC ACID]	32.5%	0.73	41.3 µg/mL (≈ 90.4 µM)		0.28	0.69	100%	7.9%	20.1%	52.9%	100%	0%	30.1%	51.9%	4.2%	0%	6.7%	8.9%	10.7%	Time [25]: >24 days
C=C[C@]1(C)CC[C@H]2C(=CC[C@@H]3[C@](C)(CO)CC[C@@H]4C[C@@]432)C1	0%	0.25	9.2 µg/mL (≈ 32.1 µM)	0.1	0.19	0.21				3.5%	100%	0%	0%	20.1%	20.8%	0%	7.5%	18.3%	39%	Time [26]: >24 days; mortality at 35 µg/mL [27]: 100%; mortality at 5 µg/mL [28]: 0%
C=CC(C)(C)C1=C(O)C(=O)c2ccccc2C1=O	0%	0.45	15.8 µg/mL (≈ 65.2 µM)	0.1	0.12	0.41				6.8%	100%	0%	9%	35.6%	41.7%	0%	10%	20.8%	24.2%	
